What follows are compounds tested on 843126-344-R-J1-PDC complex spheroid viability (assay: Anticancer human tumor 843126-344-R-J1-PDC patient-derived melanoma cell line growth inhibition [POLQ]). Details: second compound 10 µM; first compound 0.0316 µM; active compounds read low.
Description: Multicellular complex tumor spheroid response to Polymerase (POL) inhibitors (novobiocin, ART-558, RP6685) in combination with a variety of drugs and investigational agents in selected tumor cell lines
The POL inhibitors (novobiocin, ART-558, and RP6685) were evaluated both individually and in combination with standard of care and investigational anticancer small molecules within a complex spheroid model of solid tumors. . Complex spheroids include a stromal component modeled by human endothelial cells (HUVEC) and fibroblasts modeled by human mesenchymal stem cells (MSCs). The concentration ranges selected for each drug and investigational agent were based upon clinically achievable concentrations if the clinical Cmax of the agent was known.
Compounds. The drugs and investigational agents: novobiocin (NSC847541), ART-558 (NSC835418), RP-6685 (NSC848927), peposertib (NSC802822), ceralasertib (NSC780249), elimusertib (NSC800525), camonsertib (NSC841442), AZD-1390 (NSC803789), olaparib (NSC753686), talazoparib (NSC767125), rucaparib (NSC756644), sotorasib (NSC818433), MRTX-1133 (NSC836407), SN-38 (NSC673596), topotecan (NSC609699), epotoside (NSC141540), doxorubicin (NSC123127), gemcitabine (NSC613327), 5-fluorouracil (NSC19893), paclitaxel (NSC125973), vemurafenib (NSC761431), MSA-2 (NSC828583), SN-011 (NSC837082), adavosertib (NSC754352), prexasertib (NSC758257), carboplatin (NSC241240) and oxaliplatin (NSC266046), were obtained from the National Cancer Institute (NCI) Developmental Therapeutics Program Chemical Repository (21). The FDA-approved anticancer drug set is available from the Developmental Therapeutics Program at https://dtp.cancer.gov/organization/dscb/obtaining/. […] The stock solutions were prepared in dimethyl sulfoxide (DMSO, Sigma-Aldrich, St. Louis, MO, cat. D2650), except for the platinum compounds which were prepared in saline (Quality Biological, Gaithersburg, MD, cat. 114-055-101), at 800-fold the tested concentration and stored at -70 degrees C prior to their use. All drugs and investigational agents were tested over a range starting from a high concentration at or near the clinical Cmax and decreasing in half-log increments. If the clinical Cmax for an agent had not been determined, the highest concentration tested was 10 microM, except for SN-38, which was tested at a high concentration of 1 microM.
Cell Culture. All cells were maintained in an incubator at 37 degrees C and 5% CO2 with 95% humidity. The PDC lines were cultured according to standard operating procedures established by the NCI PDMR (https://pdmr.cancer.gov). Table 3 of the manuscript, lists the cell lines along with the number of the three cell types plated to form the mct-spheroids and media for tumor cell growth. After thawing, all PDC lines, except 997537-175-T-J1-PDC and 415267-285-R-J2-PDC, were cultured in Matrigel-coated flasks prepared with a working solution of 1X Ham's F-12 nutrient mix, without supplementation (Thermo Fisher Scientific, cat. 11765054), 100 U/mL penicillin-streptomycin (Thermo Fisher Scientific, cat. 15140122), and 2.5% Matrigel (Corning Inc., Corning, NY, cat. 354248) for the first three passages. The two PDC lines 997537-175-T-J1-PDC and 415267-285-R-J2-PDC were cultured on uncoated flasks. The 857933-349-R-J2-PDC line was cultured in 6C/Colon 1B media containing advanced DMEM/F-12 (Thermo Fisher Scientific, cat. 12634028), 10 mM HEPES (Thermo Fisher Scientific, cat. 15630080), 1X GlutaMAX supplement (Thermo Fisher Scientific, cat. 35050061), 0.1 mg/mL primocin (InvivoGen, San Diego, CA, cat. ant-pm-2), 10% defined fetal bovine serum, heat inactivated (HyClone Laboratories Inc., Logan, UT, cat. SH30070.03HI), 50% L-WRN conditioned media (ATCC, cat. CRL-3276), 1.25 mM N-Acetyl-L-cysteine (Sigma-Aldrich, cat. A9165), 10 mM nicotinamide (Sigma-Aldrich, cat. N0636), 1X B-27 supplement (Thermo Fisher Scientific, cat. 17504044), 1X N-2 supplement (Thermo Fisher Scientific, cat. […]
`CC1COCCN1c1cc(C2(O)CC3CCC(C2)O3)c2cnn(-c3ccn[nH]3)c2n1` (stereo unspecified) + Cc1cccc(N(C)C(=O)C2C(O)CCN2c2nc(C)cc(C(F)(F)F)c2C#N)c1 gave a viability, T/C of 87.7%.
Work on `CC1COCCN1c1cc(C2(S(C)(=N)=O)CC2)nc(-c2ccnc3[nH]ccc23)n1` (stereo unspecified) + Cc1cccc(N(C)C(=O)C2C(O)CCN2c2nc(C)cc(C(F)(F)F)c2C#N)c1 yielded a viability, T/C of 81.1%.
In the case of `COc1cccc(OCCCN)c1-c1cc(Nc2cnc(C#N)cn2)n[nH]1` + Cc1cccc(N(C)C(=O)C2C(O)CCN2c2nc(C)cc(C(F)(F)F)c2C#N)c1, the viability, T/C is reported as 64.3%.

Same assay, conditions: second compound 10 µM; first compound 0.1 µM; active compounds read low
Compound `CC1COCCN1c1cc(-c2ccnn2C)c2ccnc(-c3ccn[nH]3)c2n1` (stereo unspecified) + Cc1cccc(N(C)C(=O)C2C(O)CCN2c2nc(C)cc(C(F)(F)F)c2C#N)c1 has a viability, T/C of 83.5%.
For `CC1COCCN1c1cc(C2(O)CC3CCC(C2)O3)c2cnn(-c3ccn[nH]3)c2n1` (stereo unspecified) + Cc1cccc(N(C)C(=O)C2C(O)CCN2c2nc(C)cc(C(F)(F)F)c2C#N)c1, the viability, T/C was 82.8%.
Compound `CC1COCCN1c1cc(C2(S(C)(=N)=O)CC2)nc(-c2ccnc3[nH]ccc23)n1` (stereo unspecified) + Cc1cccc(N(C)C(=O)C2C(O)CCN2c2nc(C)cc(C(F)(F)F)c2C#N)c1 has a viability, T/C of 70%.
Work on `COc1cccc(OCCCN)c1-c1cc(Nc2cnc(C#N)cn2)n[nH]1` + Cc1cccc(N(C)C(=O)C2C(O)CCN2c2nc(C)cc(C(F)(F)F)c2C#N)c1 yielded a viability, T/C of 48.9%.

Same assay, conditions: second compound 10 µM; first compound 0.316 µM; active compounds read low
In the case of `CC1COCCN1c1cc(-c2ccnn2C)c2ccnc(-c3ccn[nH]3)c2n1` (stereo unspecified) + Cc1cccc(N(C)C(=O)C2C(O)CCN2c2nc(C)cc(C(F)(F)F)c2C#N)c1, the viability, T/C is reported as 66%.
`CC1COCCN1c1cc(C2(O)CC3CCC(C2)O3)c2cnn(-c3ccn[nH]3)c2n1` (stereo unspecified) + Cc1cccc(N(C)C(=O)C2C(O)CCN2c2nc(C)cc(C(F)(F)F)c2C#N)c1 was tested, and the viability, T/C was 63.8%.
`CC1COCCN1c1cc(C2(S(C)(=N)=O)CC2)nc(-c2ccnc3[nH]ccc23)n1` (stereo unspecified) + Cc1cccc(N(C)C(=O)C2C(O)CCN2c2nc(C)cc(C(F)(F)F)c2C#N)c1 showed a viability, T/C of 91%.
`COc1cccc(OCCCN)c1-c1cc(Nc2cnc(C#N)cn2)n[nH]1` + Cc1cccc(N(C)C(=O)C2C(O)CCN2c2nc(C)cc(C(F)(F)F)c2C#N)c1 gave a viability, T/C of 42.5%.

Same assay, conditions: second compound 10 µM; first compound 1 µM; active compounds read low
With `CC1COCCN1c1cc(-c2ccnn2C)c2ccnc(-c3ccn[nH]3)c2n1` (stereo unspecified) + Cc1cccc(N(C)C(=O)C2C(O)CCN2c2nc(C)cc(C(F)(F)F)c2C#N)c1 the viability, T/C was 57.6%.
In the case of `CC1COCCN1c1cc(C2(O)CC3CCC(C2)O3)c2cnn(-c3ccn[nH]3)c2n1` (stereo unspecified) + Cc1cccc(N(C)C(=O)C2C(O)CCN2c2nc(C)cc(C(F)(F)F)c2C#N)c1, the viability, T/C is reported as 45.2%.
With `CC1COCCN1c1cc(C2(S(C)(=N)=O)CC2)nc(-c2ccnc3[nH]ccc23)n1` (stereo unspecified) + Cc1cccc(N(C)C(=O)C2C(O)CCN2c2nc(C)cc(C(F)(F)F)c2C#N)c1 the viability, T/C was 83.3%.
In the case of `COc1cccc(OCCCN)c1-c1cc(Nc2cnc(C#N)cn2)n[nH]1` + Cc1cccc(N(C)C(=O)C2C(O)CCN2c2nc(C)cc(C(F)(F)F)c2C#N)c1, the viability, T/C is reported as 40.4%.

Same assay, conditions: second compound 10 µM; first compound 3.16 µM; active compounds read low
For `CC1COCCN1c1cc(-c2ccnn2C)c2ccnc(-c3ccn[nH]3)c2n1` (stereo unspecified) + Cc1cccc(N(C)C(=O)C2C(O)CCN2c2nc(C)cc(C(F)(F)F)c2C#N)c1, the viability, T/C was 45.1%.
Work on `CC1COCCN1c1cc(C2(O)CC3CCC(C2)O3)c2cnn(-c3ccn[nH]3)c2n1` (stereo unspecified) + Cc1cccc(N(C)C(=O)C2C(O)CCN2c2nc(C)cc(C(F)(F)F)c2C#N)c1 yielded a viability, T/C of 29.3%.
In the case of `CC1COCCN1c1cc(C2(S(C)(=N)=O)CC2)nc(-c2ccnc3[nH]ccc23)n1` (stereo unspecified) + Cc1cccc(N(C)C(=O)C2C(O)CCN2c2nc(C)cc(C(F)(F)F)c2C#N)c1, the viability, T/C is reported as 72.2%.

Same assay, conditions: second compound 10 µM; first compound 10 µM; active compounds read low
For `CC1COCCN1c1cc(-c2ccnn2C)c2ccnc(-c3ccn[nH]3)c2n1` (stereo unspecified) + Cc1cccc(N(C)C(=O)C2C(O)CCN2c2nc(C)cc(C(F)(F)F)c2C#N)c1, the viability, T/C was 33.1%.
`CC1COCCN1c1cc(C2(O)CC3CCC(C2)O3)c2cnn(-c3ccn[nH]3)c2n1` (stereo unspecified) + Cc1cccc(N(C)C(=O)C2C(O)CCN2c2nc(C)cc(C(F)(F)F)c2C#N)c1 gave a viability, T/C of 17.7%.
For `CC1COCCN1c1cc(C2(S(C)(=N)=O)CC2)nc(-c2ccnc3[nH]ccc23)n1` (stereo unspecified) + Cc1cccc(N(C)C(=O)C2C(O)CCN2c2nc(C)cc(C(F)(F)F)c2C#N)c1, the viability, T/C was 55.3%.

Reference: PubChem BioAssay AID1963837 (Molecular Pharmacology Branch, DTP, NCI, 2024)
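Note: spheroids exposed to drugs for seven days before readout.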
